{"source": "patent US8183242B2", "about": "“Aminopyrimidine compounds and their salts, process for preparation and pharmaceutical use thereof” (priority 2004, dated 2012)", "key": {"[1]": {"system": "human acute promyelocytic leukemia HL-60 cell", "assay": "MTT assay, inhibition of proliferation of HL-60 cells cultured in vitro (Bcr-Abl negative control model)", "format": "cell-based", "conditions": "drug 48 h", "method": "HL-60: human acute promyelocytic leukemia Cell. The expression of Bcr-Abl tyrosine kinase is negative.\n(§1) Cells were grown in a medium containing 10% fetal bovine serum and were kept in the logarithmic growth phase.\n(§2) The cells were pre-incubated in an incubator at 37° C. in 5% CO2 for 24 hours. The drug with 6 to 8 different concentrations was added and treated continuously for 48 h.\n(§3) After the treatment of the drug, take photos by a phase contrast microscope. Then MTT treatment solution was added into each well and after 4 hours lysed the cells by DMSO. The OD values for each well were determined by using Plarstar ELIASA.\nConcentration setting: 5-8 concentrations within the range of 0.001-10 μM were set, and each concentration is set in triplicate."}, "[2]": {"system": "transplant tumor of human granulocytic leukemia K562", "assay": "Test Example 2: therapeutic effect on naked mice with transplant tumor of human granulocytic leukemia K562", "conditions": "for Body weight before dissection d0 / TV x ± SD d0: d0 = grouping and first administration; for Body weight before dissection dn / TV x ± SD dn: dn = day 21; for CR: complete extinction (complete resolution) of tumor: end of experiment (Day 21), mice with CR/group; for mice in which the tumor was extinct: 75 mg/kg oral gavage once per day", "procedure": "Animals were allowed to acclimatize the environment for one week, and then the animals were inoculated subcutaneously human leukemia K562 cells. When the tumors have grown to a volume of 100-300 mm^3, the animals were randomly grouped (d0). The naked mice were administered by oral gavage. […] The animals were administered once per day for 21 days. Measured the volume of the tumors 2-3 times per week and weighed the animals followed by recording the data. The formula for calculating the volume of tumor (V): V=½×a×b^2, wherein a represents the length and b represents the width.\nThe mice were continuously administered by oral gavage once per day for 21 days."}, "[3]": {"system": "transplant tumor of human granulocytic leukemia K562", "assay": "Test Example 3: therapeutic effect of HH-GV-678 and Gleevec on naked mice with transplant tumor of human granulocytic leukemia K562", "conditions": "for Body weight before dissection d0 / TV x ± SD d0: d0 = grouping and first administration; for Body weight before dissection dn / TV x ± SD dn: dn = day 21; for CR: complete resolution: end of experiment, mice with CR/group", "from_the_text": "Animals were allowed to acclimatize the environment for one week, and then the animals were inoculated subcutaneously human leukemia K562 cells. When the tumors have grown to a volume of 100-300 mm^3, the animals were randomly grouped (d0). […] Measured the volume of the tumors 2-3 times per week and weighed the animals followed by recording the data. The formula for calculating the volume of tumor (V): V =1/2×a×b^2, wherein a represents the length and b represents the width."}, "[4]": {"system": "human chronic myelogenous leukemia K562 cell (expressing P210 Bcr-Abl tyrosine kinase)", "assay": "MTT assay, inhibition of proliferation of K562 cells cultured in vitro", "method": "as §1, §2, §3"}, "[5]": {"conditions": "37.5 mg/kg oral gavage once per day 21 days"}, "[6]": {"conditions": "75 mg/kg oral gavage once per day 21 days"}, "[7]": {"conditions": "150 mg/kg oral gavage once per day 21 days"}, "[8]": {"conditions": "150 mg/kg each time, oral gavage twice per day 21 days"}}, "note": "Marks after values point to notes of the source that are not given here."}
{"smiles": "CS(=O)(=O)O.Cc1ncc(NC(=O)c2ccc(CN3CCN(C)CC3)c(C(F)(F)F)c2)cc1Nc1nccc(-c2cccnc2)n1", "note": "[HH-GV-F, 4-((4-methylpiperazin-1-yl)methyl)-N-[6-methyl-5-[[4-(pyrid-3-yl)pyrimidin-2-yl]amino]pyrid-3-yl]-3-(trifluoromethyl)-benzamide methanesulfonic acid salt]", "values": [{"measurement": "IC50", "setting": "[1]", "value": "≥ 10", "unit": "µM"}, {"measurement": "RTV x ± SD", "setting": "[2]; [5]", "value": "2.85 ± 3.18"}, {"measurement": "T/C", "setting": "[2]; [5]", "value": "40.4* %"}, {"measurement": "effect on the growth of K562 tumor", "setting": "[2]; [5]", "value": "significantly inhibited the growth of K562 tumor, but did not cause the tumor extinct"}, {"measurement": "Body weight before dissection d0", "setting": "[2]; [5]", "value": 19.3, "unit": "gram"}, {"measurement": "TV x ± SD d0", "setting": "[2]; [5]", "value": "119 ± 51", "unit": "mm^3"}, {"measurement": "Body weight before dissection dn", "setting": "[2]; [5]", "value": 18.8, "unit": "gram"}, {"measurement": "TV x ± SD dn", "setting": "[2]; [5]", "value": "294 ± 255", "unit": "mm^3"}, {"measurement": "CR: complete extinction (complete resolution) of tumor", "setting": "[2]; [5]", "value": "0/6"}, {"measurement": "RTV x ± SD", "setting": "[2]; [6]", "value": "1.38 ± 3.08"}, {"measurement": "T/C", "setting": "[2]; [6]", "value": "19.6* %"}, {"measurement": "Body weight before dissection d0", "setting": "[2]; [6]", "value": 19.2, "unit": "gram"}, {"measurement": "TV x ± SD d0", "setting": "[2]; [6]", "value": "127 ± 46", "unit": "mm^3"}, {"measurement": "Body weight before dissection dn", "setting": "[2]; [6]", "value": 19.3, "unit": "gram"}, {"measurement": "TV x ± SD dn", "setting": "[2]; [6]", "value": "95 ± 199", "unit": "mm^3"}, {"measurement": "CR: complete extinction (complete resolution) of tumor", "setting": "[2]; [6]", "value": "4/6"}, {"measurement": "mice in which the tumor was extinct", "setting": "[2]; Day 9", "value": "1/6"}, {"measurement": "mice in which the tumor was extinct", "setting": "[2]; Day 12", "value": "4/6"}, {"measurement": "mice in which the tumor was extinct", "setting": "[2]; Day 15", "value": "5/6"}, {"measurement": "RTV x ± SD", "setting": "[3]; [6]", "value": "0 ± 0"}, {"measurement": "T/C", "setting": "[3]; [6]", "value": "0* %"}, {"measurement": "Body weight before dissection d0", "setting": "[3]; [6]", "value": 24.0, "unit": "gram"}, {"measurement": "TV x ± SD d0", "setting": "[3]; [6]", "value": "168 ± 65", "unit": "mm^3"}, {"measurement": "Body weight before dissection dn", "setting": "[3]; [6]", "value": 24.7, "unit": "gram"}, {"measurement": "TV x ± SD dn", "setting": "[3]; [6]", "value": "0 ± 0", "unit": "mm^3"}, {"measurement": "CR: complete resolution", "setting": "[3]; [6]", "value": "7/8"}, {"measurement": "complete resolution (CR) of tumors, mice of the group", "setting": "[3]; 75 mg/kg oral gavage once per day, Day 6", "value": "3/8"}, {"measurement": "complete resolution (CR) of tumors, mice of the group", "setting": "[3]; 75 mg/kg oral gavage once per day, Day 9", "value": "7/8"}, {"measurement": "complete resolution (CR) of tumors, mice of the group", "setting": "[3]; 75 mg/kg oral gavage once per day, Day 12", "value": "8/8"}, {"measurement": "RTV x ± SD", "setting": "[3]; [7]", "value": "0 ± 0"}, {"measurement": "T/C", "setting": "[3]; [7]", "value": "0* %"}, {"measurement": "Body weight before dissection d0", "setting": "[3]; [7]", "value": 24.3, "unit": "gram"}, {"measurement": "TV x ± SD d0", "setting": "[3]; [7]", "value": "152 ± 37", "unit": "mm^3"}, {"measurement": "Body weight before dissection dn", "setting": "[3]; [7]", "value": 23.9, "unit": "gram"}, {"measurement": "TV x ± SD dn", "setting": "[3]; [7]", "value": "0 ± 0", "unit": "mm^3"}, {"measurement": "CR: complete resolution", "setting": "[3]; [7]", "value": "8/8"}, {"measurement": "complete resolution (CR) of tumors, mice of the group", "setting": "[3]; 150 mg/kg oral gavage once per day, Day 6", "value": "6/8"}, {"measurement": "complete resolution (CR) of tumors, mice of the group", "setting": "[3]; 150 mg/kg oral gavage once per day, Day 9", "value": "8/8"}, {"measurement": "toxicity", "setting": "[3]; mouse, in vivo", "value": "relatively lower"}]}
{"smiles": "Cc1ccc(NC(=O)c2ccc(CN3CCN(C)CC3)cc2)cc1Nc1nccc(-c2cccnc2)n1", "note": "[Gleevec, Imatinib, reference compound]", "values": [{"measurement": "RTV x ± SD", "setting": "[2]; [6]", "value": "8.56 ± 7.09"}, {"measurement": "T/C", "setting": "[2]; [6]", "value": 121.0, "unit": "%"}, {"measurement": "Body weight before dissection d0", "setting": "[2]; [6]", "value": 19.3, "unit": "gram"}, {"measurement": "TV x ± SD d0", "setting": "[2]; [6]", "value": "153 ± 68", "unit": "mm^3"}, {"measurement": "Body weight before dissection dn", "setting": "[2]; [6]", "value": 15.6, "unit": "gram"}, {"measurement": "TV x ± SD dn", "setting": "[2]; [6]", "value": "971 ± 154", "unit": "mm^3"}, {"measurement": "CR: complete extinction (complete resolution) of tumor", "setting": "[2]; [6]", "value": "0/6"}, {"measurement": "mice died", "setting": "[2]; 150 mg/kg group, Day 18, death considered to be related to the tumor", "value": "1/6"}, {"measurement": "RTV x ± SD", "setting": "[2]; [7]", "value": "8.30 ± 5.65"}, {"measurement": "T/C", "setting": "[2]; [7]", "value": 117.7, "unit": "%"}, {"measurement": "Body weight before dissection d0", "setting": "[2]; [7]", "value": 20.3, "unit": "gram"}, {"measurement": "TV x ± SD d0", "setting": "[2]; [7]", "value": "127 ± 45", "unit": "mm^3"}, {"measurement": "Body weight before dissection dn", "setting": "[2]; [7]", "value": 16.3, "unit": "gram"}, {"measurement": "TV x ± SD dn", "setting": "[2]; [7]", "value": "824 ± 170", "unit": "mm^3"}, {"measurement": "CR: complete extinction (complete resolution) of tumor", "setting": "[2]; [7]", "value": "0/6"}, {"measurement": "effect on the growth of the tumor", "setting": "[2]; present protocol: 75 and 150 mg/kg oral gavage once per day 21 days", "value": "did not have significant effect on the growth of the tumor"}, {"measurement": "T/C", "setting": "[3]; [8]", "value": "34.2* %"}, {"measurement": "Body weight before dissection d0", "setting": "[3]; [8]", "value": 24.1, "unit": "gram"}, {"measurement": "TV x ± SD d0", "setting": "[3]; [8]", "value": "144 ± 33", "unit": "mm^3"}, {"measurement": "Body weight before dissection dn", "setting": "[3]; [8]", "value": 20.6, "unit": "gram"}, {"measurement": "TV x ± SD dn", "setting": "[3]; [8]", "value": "501 ± 347", "unit": "mm^3"}, {"measurement": "CR: complete resolution", "setting": "[3]; [8]", "value": "2/8"}, {"measurement": "complete resolution (CR) of tumors, mice of the group", "setting": "[3]; 150 mg/kg each time, oral gavage twice per day, Day 12", "value": "1/8"}]}
{"smiles": "CS(=O)(=O)O.Cc1ncc(NC(=O)c2ccc(CN3CCN(C)CC3)c(Cl)c2)cc1Nc1nccc(-c2cccnc2)n1", "note": "[HH-GV-E, 4-((4-methylpiperazin-1-yl)methyl)-N-[6-methyl-5-[[4-(pyrid-3-yl)pyrimidin-2-yl]amino]pyrid-3-yl]-3-chloro-benzamide methanesulfonic acid salt]", "values": [{"measurement": "IC50", "setting": "[1]", "value": "> 10", "unit": "µM"}, {"measurement": "RTV x ± SD", "setting": "[2]; [6]", "value": "9.60 ± 6.51"}, {"measurement": "T/C", "setting": "[2]; [6]", "value": 103.6, "unit": "%"}, {"measurement": "Body weight before dissection d0", "setting": "[2]; [6]", "value": 18.5, "unit": "gram"}, {"measurement": "TV x ± SD d0", "setting": "[2]; [6]", "value": "130 ± 58", "unit": "mm^3"}, {"measurement": "Body weight before dissection dn", "setting": "[2]; [6]", "value": 14.2, "unit": "gram"}, {"measurement": "TV x ± SD dn", "setting": "[2]; [6]", "value": "954 ± 242", "unit": "mm^3"}, {"measurement": "CR: complete extinction (complete resolution) of tumor", "setting": "[2]; [6]", "value": "0/6"}, {"measurement": "RTV x ± SD", "setting": "[2]; [7]", "value": "3.24 ± 1.65"}, {"measurement": "T/C", "setting": "[2]; [7]", "value": "47.4* %"}, {"measurement": "effect on the growth of K562 tumor", "setting": "[2]; [7]", "value": "significant inhibition effect on the growth of K562 tumor"}, {"measurement": "Body weight before dissection d0", "setting": "[2]; [7]", "value": 18.8, "unit": "gram"}, {"measurement": "TV x ± SD d0", "setting": "[2]; [7]", "value": "149 ± 31", "unit": "mm^3"}, {"measurement": "Body weight before dissection dn", "setting": "[2]; [7]", "value": 15.2, "unit": "gram"}, {"measurement": "TV x ± SD dn", "setting": "[2]; [7]", "value": "455 ± 214", "unit": "mm^3"}, {"measurement": "CR: complete extinction (complete resolution) of tumor", "setting": "[2]; [7]", "value": "0/6"}, {"measurement": "selectivity for the target", "setting": "[4]; HL-60 versus K562 cells", "value": "> 125", "unit": "folds"}, {"measurement": "IC50", "setting": "[4]; Homo sapiens, K562, 48 h, read-out: IC50, inhibition of proliferation of leukemia cells", "value": 0.08, "unit": "µM"}]}
